Results published in PubChem BioAssay AID2060360 (Molecular Pharmacology Branch, DTP, NCI, 2025).
Where “and” joins values, the source holds several entries; their conditions need not be identical. Equal entries are not always repeated.

System: 282377-053-R-J1-PDC tumor spheroids, viability
Experiment: Anticancer human tumor 282377-053-R-J1-PDC patient-derived colon adenocarcinoma cell line growth inhibition [TAK]
Details: spheroids with HUVEC and MSC; for viability, T/C: stronger effect = lower value; active = viability on the fitted dose curve at most 10% of control; inactive = the rest
Excerpt: Combinatorial screen of targeted agents with TAK-243 and ipatasertib in multi-cell type tumor spheroids
A high-throughput screen of multi-cell type tumor spheroids was designed to identify active combinations of targeted small molecules and TAK-243 or ipatasertib. Complex spheroids include a stromal component modeled by human endothelial cells (HUVEC) and fibroblasts modeled by human mesenchymal stem cells (MSCs). The concentration ranges selected for each drug and investigational agent were based upon clinically achievable concentrations if the clinical Cmax of the agent was known.
Compounds. The drugs and investigational agents: TAK-243 (785004), ipatasertib (767898), everolimus (733504), selumetinib (741078), bortezomib (756655), trametinib (758246), ixazomib (758254), vemurafenib (761431), dabrafenib (764134), sapanisertib (764658), alpelisib (765974), and copanlisib (816437), were obtained from the National Cancer Institute (NCI) Developmental Therapeutics Program Chemical Repository. The FDA-approved anticancer drug set is available from the NCI Developmental Therapeutics Program. […] The stock solutions were prepared in dimethyl sulfoxide (DMSO, Sigma-Aldrich, St. Louis, MO, cat. D2650) at 800-fold the tested concentration and stored at -70 degrees C prior to their use. All drugs and investigational agents were tested over a range starting from a high concentration at or near the clinical Cmax and decreasing in half-log increments. If the clinical Cmax for an agent had not been determined, the highest concentration tested was 10 microM.
NCI60 Cell Culture. NCI60 cell lines were obtained from the NCI Developmental Therapeutics Program Tumor Repository. For each lot of cells, the Repository performed Applied Biosystems AmpFLSTR Identifiler testing with PCR amplification to confirm consistency with the published Identifier STR profile for each cell line. Cells were kept in continuous culture for no more than 20 passages. The optimal seeding densities for each of the cell lines at each time point assessed were determined prior to performing the concentration response studies. Briefly, the NCI60 human tumor lines were grown as monolayers in RPMI 1640 medium supplemented with 10% FBS and 2 mmol/L L-glutamine.
An additional 2 lines were from the NCI60 cell line panel including melanomas, MALME-3M and SK-MEL-2. Pooled donor human umbilical vein endothelial cells (HUVEC, Lonza, cat. CC-2519) and human mesenchymal stem cells (hMSC, Lonza, cat. PT-2501) were purchased from Lonza (Walkersville, MD).
PDMR cell lines were grown in complete medium (DC medium): Dulbecco's modified Eagle's medium (DMEM)/F12 supplemented with 5% fetal bovine serum (FBS), 2 mM L-glutamine, 100 U/mL penicillin and 100 µg/ml streptomycin, 0.4 µg/ml hydrocortisone, 10 ng/ml epidermal growth factor (EGF) recombinant human protein, 24 µg/mL adenine, and 0.1 mg/mL primocin. During culture from frozen stock vials, PDMR cells were cultured in the same medium containing 10 µM Y-27632 (see Table 3). The PDCs were cultured in complete DMEM/F12 media without 10 microM Y-27632 dihydrochloride for at least two passages prior to the screen. The pooled donor HUVEC and hMSC were cultured in endothelial cell growth medium 2 (PromoCell, Heidelberg, Germany, cat. C-22011) and mesenchymal stem cell growth medium 2 (PromoCell, cat. C-28009), respectively. For all experiments, HUVEC and hMSC were used at passages </=5.
For the pre-screen, cell seeding densities were determined from a titration spanning the range from 5,000 to 313 cells per well. The mct-spheroids including 60% malignant cells, 25% HUVEC and 15% MSC dispensed as a mixture into U-bottom Ultra-Low Attachment 384-well plates (Corning, NY)
High-throughput Drug Combination Screening.
Prior to their inoculation into 384-well plates, malignant cells, HUVEC, and hMSC were removed from T flasks using TrypLE express (Thermo Fisher Scientific, cat. 12605036) and harvested by centrifugation for 5 min at 233 x g. […]

[1] = curve of first compound, second compound 0.3 µM
[2] = curve of first compound, second compound 0.949 µM
[3] = curve of first compound, second compound 3 µM
[4] = curve of first compound, second compound 9.49 µM
[5] = curve of first compound, second compound 30 µM
[6] = second compound 0.3 µM, first compound 0.00316 µM
[7] = second compound 0.3 µM, first compound 0.01 µM
[8] = second compound 0.3 µM, first compound 0.0316 µM
[9] = second compound 0.3 µM, first compound 0.1 µM
[10] = second compound 0.949 µM, first compound 0.00316 µM
[11] = second compound 0.949 µM, first compound 0.01 µM
[12] = second compound 0.949 µM, first compound 0.0316 µM
[13] = second compound 0.949 µM, first compound 0.1 µM
[14] = second compound 3 µM, first compound 0.00316 µM
[15] = second compound 3 µM, first compound 0.01 µM
[16] = second compound 3 µM, first compound 0.0316 µM
[17] = second compound 3 µM, first compound 0.1 µM
[18] = second compound 9.49 µM, first compound 0.00316 µM
[19] = second compound 9.49 µM, first compound 0.01 µM
[20] = second compound 9.49 µM, first compound 0.0316 µM
[21] = second compound 9.49 µM, first compound 0.1 µM
[22] = second compound 30 µM, first compound 0.00316 µM
[23] = second compound 30 µM, first compound 0.01 µM
[24] = second compound 30 µM, first compound 0.0316 µM
[25] = second compound 30 µM, first compound 0.1 µM
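Also: spheroids exposed to drugs for seven days before readout.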

CC(C)CC(NC(=O)CNC(=O)c1cc(Cl)ccc1Cl)B1OC(=O)CC(CC(=O)O)(C(=O)O)O1 (configuration not stated) + CC(C)NCC(C(=O)N1CCN(c2ncnc3c2C(C)CC3O)CC1)c1ccc(Cl)cc1
active: viability, T/C [9] 3.57% | viability, T/C [13] 1.73% | viability, T/C [17] 1.39% | viability, T/C [21] 1.53% | viability, T/C [25] 0.99%
0.0538 µM: IC50 [1]
inactive: viability, T/C (second compound 0.3 µM, first compound 0.000316 µM) 99.5% | viability, T/C (second compound 0.3 µM, first compound 0.001 µM) 93.9% | viability, T/C [6] 94.3% | viability, T/C [7] 92.7% | viability, T/C [8] 89.7% | viability, T/C (second compound 0.949 µM, first compound 0.000316 µM) 100% | viability, T/C (second compound 0.949 µM, first compound 0.001 µM) 88.3% | viability, T/C [10] 87.1% | viability, T/C [11] 94.5% | viability, T/C [12] 77.1% | viability, T/C (second compound 3 µM, first compound 0.000316 µM) 82.4% | viability, T/C (second compound 3 µM, first compound 0.001 µM) 87.8% | viability, T/C [14] 84.2% | viability, T/C [15] 84.5% | viability, T/C [16] 69.2% | viability, T/C (second compound 9.49 µM, first compound 0.000316 µM) 81.3% | viability, T/C (second compound 9.49 µM, first compound 0.001 µM) 79.3% | viability, T/C [18] 81.7% | viability, T/C [19] 77.5% | viability, T/C [20] 61.5% | viability, T/C (second compound 30 µM, first compound 0.000316 µM) 70.2% | viability, T/C (second compound 30 µM, first compound 0.001 µM) 74.6% | viability, T/C [22] 67.7% | viability, T/C [23] 66.8% | viability, T/C [24] 57.3%
0.0393 µM: IC50 [4]
0.0479 µM: IC50 [2]
0.0363 µM: IC50 [5]
0.0438 µM: IC50 [3]

CC(C)CC(NC(=O)CNC(=O)c1cc(Cl)ccc1Cl)B1OC(=O)CC(CC(=O)O)(C(=O)O)O1 (configuration not stated)
0.0558 µM and 0.0575 µM: IC50 (curve of compound)
inactive: viability, T/C (compound 0.000316 µM) 97.6% and 92.8% | viability, T/C (compound 0.001 µM) 95.9% and 104% | viability, T/C (compound 0.00316 µM) 101% and 95.3% | viability, T/C (compound 0.01 µM) 97.9% and 101% | viability, T/C (compound 0.0316 µM) 93.3% and 95%
active: viability, T/C (compound 0.1 µM) 5.66% and 8.2%

Cc1nc(NC(=O)N2CCCC2C(N)=O)sc1-c1ccnc(C(C)(C)C(F)(F)F)c1 (configuration not stated)
> 10 µM: IC50 (curve of compound)
inactive: viability, T/C (compound 0.0316 µM) 97.1% and 95.8% | viability, T/C (compound 0.1 µM) 96.6% and 101% | viability, T/C (compound 0.316 µM) 95.6% and 96.5% | viability, T/C (compound 1 µM) 93.9% and 93.5% | viability, T/C (compound 3.16 µM) 89.7% and 88.6% | viability, T/C (compound 10 µM) 85.2% and 79.1%

CC(C)NCC(C(=O)N1CCN(c2ncnc3c2C(C)CC3O)CC1)c1ccc(Cl)cc1 (configuration not stated)
> 30 µM: IC50 (compound alone, run of 03/19/2020)
inactive: viability, T/C (compound 0.3 µM) 100% [middle of 10 runs] | viability, T/C (compound 0.949 µM) 92% [middle of 10 runs] | viability, T/C (compound 3 µM) 84.9% [middle of 10 runs] | viability, T/C (compound 9.49 µM) 81.9% [middle of 10 runs] | viability, T/C (compound 30 µM) 69.3% [middle of 10 runs]

COc1c(OCCCN2CCOCC2)ccc2c3n(c(=NC(=O)c4cnc(N)nc4)nc12)CCN3 + CC(C)NCC(C(=O)N1CCN(c2ncnc3c2C(C)CC3O)CC1)c1ccc(Cl)cc1
0.0323 µM: IC50 [5]
0.489 µM: IC50 [3]
active: viability, T/C (second compound 30 µM, first compound 1 µM) 4.24%
0.182 µM: IC50 [4]
> 1 µM: IC50 [1]
0.674 µM: IC50 [2]
inactive: viability, T/C [6] 95% | viability, T/C [7] 96% | viability, T/C [8] 91.8% | viability, T/C [9] 91.1% | viability, T/C (second compound 0.3 µM, first compound 0.316 µM) 87.9% | viability, T/C (second compound 0.3 µM, first compound 1 µM) 64.3% | viability, T/C [10] 94.9% | viability, T/C [11] 87.7% | viability, T/C [12] 87.6% | viability, T/C [13] 81.3% | viability, T/C (second compound 0.949 µM, first compound 0.316 µM) 82.7% | viability, T/C (second compound 0.949 µM, first compound 1 µM) 33.2% | viability, T/C [14] 86.1% | viability, T/C [15] 88.3% | viability, T/C [16] 80.5% | viability, T/C [17] 78.4% | viability, T/C (second compound 3 µM, first compound 0.316 µM) 73.4% | viability, T/C (second compound 3 µM, first compound 1 µM) 13.6% | viability, T/C [18] 82.3% | viability, T/C [19] 79.1% | viability, T/C [20] 73.2% | viability, T/C [21] 66.8% | viability, T/C (second compound 9.49 µM, first compound 0.316 µM) 35.4% | viability, T/C (second compound 9.49 µM, first compound 1 µM) 11.4% | viability, T/C [22] 66.4% | viability, T/C [23] 65.8% | viability, T/C [24] 48% | viability, T/C [25] 29.7% | viability, T/C (second compound 30 µM, first compound 0.316 µM) 8.22%

COC1CC2CCC(C)C(O)(O2)C(=O)C(=O)N2CCCCC2C(=O)OC(C(C)CC2CCC(OCCO)C(OC)C2)CC(=O)C(C)C=C(C)C(O)C(OC)C(=O)C(C)CC(C)C=CC=CC=C1C (configuration not stated)
> 0.1 µM: IC50 (curve of compound)
inactive: viability, T/C (compound 0.000316 µM) 101% and 99.3% | viability, T/C (compound 0.001 µM) 101% and 97.3% | viability, T/C (compound 0.00316 µM) 97.6% and 98.6% | viability, T/C (compound 0.01 µM) 102% and 103% | viability, T/C (compound 0.0316 µM) 94.2% and 95.4% | viability, T/C (compound 0.1 µM) 101% and 97.8%
